The values that follow come from US20050220726A1, “Use of sugar esters in cosmetic and/or pharmaceutical preparations” (priority 2003, published 2005).

What all share (assay type): cell-based
Assay [1] has as its system human keratinocytes. The experiment in a line: Protecting cells against UVB radiation (cell DNA, LDH and PGE2 release). The settings on record: + UV-B 50 mJ/cm^2; for Cell DNA: blank = 100, control + UV-B = 33; for LDH released / PGE2 released: control + UV-B = 100. As for the experimental part:
UVB was selected as the stress factor because the rays produce cutaneous inflammation (erythemas, oedemas) by activating enzymes that release arachidonic acid, such as phospholipase A2 (PLA2) for example. […] The influence of UVB rays on keratinocytes was determined in vitro through the release of cytoplasmatic enzymes, such as LDH (lactate dehydrogenase) for example, which runs parallel to the cell damage and the formation of PGE2. […] The quantity of keratinocytes was determined after trypsination via a cell counter while the LDH concentration was enzymatically determined. The results are set out in Table 4, where they are expressed as the activity in %-rel. against a standard, and represent the mean value of two test series involving double determination.
A general note: LDH leaks from cells whose membrane has failed.

Assay [2] has as its system human leukaemic granulocytes. The experiment in a line: Anti-inflammatory activity: respiratory burst of granulocytes (zymosan, luminol). The note with it: + stimulation (zymosan), blank + stimulation = 100. From the text:
In the course of cutaneous inflammation, leucocytes, such as the polymorphonuclear neutrophilic granulocytes (PMNs) for example, are stimulated by peptides, such as cytokines for example, to emit messenger substances, such as leucotriene for example, which are released from activated or necrotic cells in the dermis. These activated PMNs release not only pro-inflammatory cytokinins, leucotrienes and proteases, but also ROS, such as superoxides and hypochlorite anions for example, of which the function is to destroy penetrated pathogenic germs or fungi. This activity of the PMNs during the inflammation is known as so-called respiratory burst. To investigate to what extent the test extracts can prevent or reduce the respiratory burst, a cell line of human leukaemic granulocytes of these PMNs was incubated together with the test substances at 37° C. and 5% by vol. CO2. After the respiratory burst had been initiated by addition of a yeast extract (zymosan) to the cell solution, the release of superoxide anions was determined through their reaction with luminol.

For assay [3], the system named is melanocytes (B16 cell line). Put plainly: Inhibition of melanin synthesis in B16 melanocytes. The note with it: 3 days, blank value = 100. As for the experimental part:
Melanin is the pigment responsible for the color of the skin and hair. It is formed in special organelles, the melanosomes, which occur in the melanocytes of the basal layer of the human epidermis. The biosynthesis of melanin begins with the amino acid tyrosine which is oxidized to DOPA (dihydroxyphenylalanine) in the presence of tyrosinase. The DOPA then polymerizes to melanin. […] After incubation for 3 days at 37° C./5% CO2, the nutrient medium was replaced by a solution containing the test substances in various concentrations. After incubation for another 3 days, the cell protein content (Bradford's method) and the content of synthesized melanin were determined through the optical density of the homogenizate at 475 nm. The results are expressed in % against a blank value and are set out in Table 7.

The subject of assay [4] is human keratinocytes. Put plainly: Growth inhibition on human keratinocytes with EGF. The note with it: with EGF 10 ng/ml, 3 days, control = 100, control with EGF = 167. Here is the method: Increased proliferation and differentiation of keratinocytes of the hair matrix leads to improved longer hair growth. The following test was carried out to determine the potential of the sugar esters for inhibiting hair growth which is visibly reflected in a reduction in the proliferation of human keratinocyte culture in vitro.
To this end, human keratinocytes were cultivated in a standard cell culture medium containing foetal calf serum (FCS). After incubation for 1 day at 37° C./5% CO2, the growth medium was replaced by standard medium containing 10 ng/ml epidermal growth factor (EGF) and various concentrations of sugar esters dissolved in ethanol (1% by volume).
After incubation for three days, the number of living cells was determined by determining the cell protein content by the Bradford method [Bradford, M. M., A rapid and sensitive method for the quantitation of microgram quantities of protein utilizing the principle of protein-dye binding. Anal. Biochem. (1977), Vol. 72, pp. 248-254].
The results of Table 8 represent the values of triple determinations on two batches expressed in % against a control of cell culture medium without sugar ester.

A further assay deals with human hair follicles. The experiment in a line: Inhibition of hair growth, in vitro cultivated hair follicles. The note with it: conc. 0.01 % w/v. Here is the method:
The hair-growth-inhibiting effect of the sugar esters was determined by a method using in vitro cultivated human hair follicles in a growth medium. The growth of the hair follicles was tested in the presence and absence of fructose caprate. To this end, the hair follicles were incubated for 7 days at 37° C./5% CO2. The length of the cultivated hair follicles was recorded after 3 days and 7 days of cultivation. In a comparison example, the growth medium additionally contained 30 ng/ml IGF-1 insulin-like growth factor), a cytokine which stimulates hair follicle growth.
Each of the tests was carried out with 10 hair follicles of a donor (5 donors in all).
The results are set out in Table 9 and represent the mean values of the 50 hair follicles.

A further assay concerns Propionibacterium acnes. The experiment in a line: Agar dilution method (MIC determination). The settings on record: 18 to 24 h at 37° C. As for the experimental part:
(§1) The antibacterial activity of the test substances was tested by the diffusion method on agar plates or the agar dilution method. In this method, a round filter paper of defined diameter is first impregnated with the test solution and then applied to the surface of an agar plate inoculated beforehand with the test microorganisms. The size of the inhibition zones is then determined after defined times. In particular, it is possible by this method to determine the MIC (Minimum Inhibitory Concentration) as the lowest concentration of test substance with which complete inhibition of the microorganisms can be obtained. Agar dilution method (MIC determination). Various agars were prepared as described above, test substances were added in various concentrations, homogenized and dried. The Petri dishes were then inoculated with quantities of 2 μl of the bacterial suspension. After each drying step the Petri dishes were incubated for 18 to 24 h at 37° C. […] The results represent the averages of double determinations.
(In general: Agar dilution tests growth on a series of plates holding different concentrations.)

The next assay deals with Staphylococcus aureus. The experiment in a line: Agar dilution method (MIC determination). The note with it: 18 to 24 h at 37° C. Here is the method: as §1
Assay [5] deals with Staphylococcus epidermidis. Put plainly: Agar dilution method (MIC determination). The settings on record: 18 to 24 h at 37° C. As for the experimental part: as §1

With Fructose caprate, the “Cell DNA” value worked out at 32 %-rel in the assay on human keratinocytes [1] (conc. 0.001 % w/v) and 140 %-rel with human keratinocytes [1] (conc. 0.003 % w/v). The LDH released with human keratinocytes [1] (conc. 0.001 % w/v) amounted to 68 %-rel; in the assay with human keratinocytes [1] (conc. 0.003 % w/v), 0 %-rel. The PGE2 released in the assay on human keratinocytes [1] (conc. 0.001 % w/v) was determined as 35 %-rel; in the assay with human keratinocytes [1] (conc. 0.003 % w/v), 0 %-rel. Further, the Cell counts was determined as 97 %-rel in assay [2] (conc. 0.003 % w/v) and 60 %-rel in assay [2] (conc. 0.01 % w/v). The ROS released in assay [2] (conc. 0.003 % w/v) stood at 87 %-rel; in assay [2] (conc. 0.01 % w/v), 5 %-rel. In addition, the Cell melanin is reported as 54 %-rel in assay [3] (conc. 0.003 % w/v) and 30 %-rel in assay [3] (conc. 0.006 % w/v). For the same substance, the Cell proteins in assay [3] (conc. 0.003 % w/v) is recorded as 108 %-rel; in assay [3] (conc. 0.006 % w/v), 80 %-rel. In addition, the “Cell protein content in %” value in the assay on human keratinocytes [4] (conc. 0.001 % w/v) is given as 163%; in the assay with human keratinocytes [4] (conc. 0.003 % w/v), 130%; in the assay on human keratinocytes [4] (conc. 0.01 % w/v), 45%. Moreover, the “Hair follicle growth, increase Day 3/day 0” value was “+15%” with human hair follicles (+ IGF (30 ng/ml IGF-1), control +21%) and “+12%” with human hair follicles (without IGF, control +15%). Also, the “Hair follicle growth, increase Day 7/day 0” value is “+25%” in the assay with human hair follicles (+ IGF (30 ng/ml IGF-1), control +45%) and “+21%” in the assay on human hair follicles (without IGF, control +32%). Further, the “MIC, Propionibacterium acnes” value in the assay on Propionibacterium acnes came to 625 µg/mL. For the same substance, the “MIC, Staphylococcus aureus” value against Staphylococcus aureus was determined as 1250 µg/mL. Further, in assay [5], the “MIC, Staphylococcus epidermidis” value worked out at 1250 µg/mL.
